For one assay, the target named is T1, human CYP11B1 (Homo sapiens, UniProt P15538).
T1 construct: expressed in transfected cells
T1 sequence (P15538 25-503): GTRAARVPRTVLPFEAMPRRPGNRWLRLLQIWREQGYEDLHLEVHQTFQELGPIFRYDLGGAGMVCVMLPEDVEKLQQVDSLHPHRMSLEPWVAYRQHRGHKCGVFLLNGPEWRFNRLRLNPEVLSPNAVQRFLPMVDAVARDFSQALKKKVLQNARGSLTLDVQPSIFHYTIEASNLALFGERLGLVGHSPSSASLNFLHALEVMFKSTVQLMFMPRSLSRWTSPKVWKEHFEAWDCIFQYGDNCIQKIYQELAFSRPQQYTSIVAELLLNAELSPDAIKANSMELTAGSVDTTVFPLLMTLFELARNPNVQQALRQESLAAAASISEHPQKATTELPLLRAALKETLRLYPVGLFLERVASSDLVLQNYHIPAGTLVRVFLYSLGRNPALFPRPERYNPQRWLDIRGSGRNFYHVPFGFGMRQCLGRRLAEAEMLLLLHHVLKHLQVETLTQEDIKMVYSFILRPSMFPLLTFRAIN
Description: Inhibition of hCYP11B1 in transfected V79 cells. It is filed as cell-based. The following applies: hamster V79 cells expressing human CYP11B1; substrate 11-deoxycortisol 200 nM. The method, boiled down:
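V79 hamster cells stably expressing human CYP11B1 and rat NADPH-P450 reductase were preincubated with compounds for 2 h. 11-Deoxycortisol (200 nM) was then added as substrate for 30 min before ethyl acetate quench. Substrate and product were quantified by LC-MS/MS or HPLC at 260 nm, and IC50 was derived from percent inhibition.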

Another assay concerns the target T2, human CYP11B2 (Homo sapiens, UniProt P19099).
T2 construct: expressed in transfected cells
T2 sequence (P19099 25-503): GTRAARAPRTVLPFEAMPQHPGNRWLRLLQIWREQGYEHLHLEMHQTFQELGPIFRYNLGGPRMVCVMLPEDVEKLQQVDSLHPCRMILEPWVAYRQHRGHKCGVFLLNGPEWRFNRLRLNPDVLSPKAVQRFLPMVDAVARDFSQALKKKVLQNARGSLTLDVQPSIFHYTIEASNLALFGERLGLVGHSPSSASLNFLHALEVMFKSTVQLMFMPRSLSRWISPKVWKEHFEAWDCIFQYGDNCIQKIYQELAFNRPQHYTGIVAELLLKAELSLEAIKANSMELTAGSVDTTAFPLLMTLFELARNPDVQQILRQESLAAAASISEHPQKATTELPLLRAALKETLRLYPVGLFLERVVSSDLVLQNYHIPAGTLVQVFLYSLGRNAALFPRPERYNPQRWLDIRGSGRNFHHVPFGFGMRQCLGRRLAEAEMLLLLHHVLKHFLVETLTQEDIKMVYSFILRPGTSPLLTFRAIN
Description: Inhibition of hCYP11B2 in transfected V79 cells. The following applies: hamster V79 cells expressing human CYP11B2; substrate 11-deoxycorticosterone 200 nM. The assay is classed as cell-based. The method, boiled down:
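Hamster V79 cells stably co-expressing human CYP11B2 and rat NADPH-P450 reductase were pre-incubated with compounds for 2 hours, then given 200 nM 11-deoxycorticosterone for 30 minutes before ethyl acetate quench. Substrate and product were quantified by LC-MS/MS or HPLC at 260 nm, and IC50 was derived from percent inhibition.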

`Cc1ccc(S(=O)(=O)N2CC(C(=O)N3CCOc4c(-c5ccc(C#N)cc5)cncc43)C2)cc1` [O65, 4-(4-(1-Tosylazetidine-3-carbonyl)-3,4-dihydro-2H-pyrido[4,3-b][1,4]oxazin-8-yl)benzonitrile]: the IC50 worked out at 0.521 µM against human CYP11B1 and 0.0025 µM on human CYP11B2.

Consider `COc1cccc(S(=O)(=O)N2CC(C(=O)N3CCOc4c(-c5ccc(C#N)cc5)cncc43)C2)c1` [O66, 4-(4-(1-((3-Methoxyphenyl)sulfonyl)azetidine-3-carbonyl)-3,4-dihydro-2H-pyrido[4,3-b][1, 4]oxazin-8-yl)benzonitrile], for which the half-maximal inhibitory concentration (IC50) at human CYP11B1 is 0.495 µM; on human CYP11B2, 0.0045 µM.

Regarding `COc1ccc(S(=O)(=O)N2CC(C(=O)N3CCOc4c(-c5ccc(C#N)cc5)cncc43)C2)cc1` [O67, 4-(4-(1-((4-Methoxyphenyl)sulfonyl)azetidine-3-carbonyl)-3,4-dihydro-2H-pyrido[4,3-b][1, 4]oxazin-8-yl)benzonitrile], the IC50 amounted to 0.496 µM at human CYP11B1 and 0.0027 µM on human CYP11B2.

As for `N#Cc1ccc(-c2cncc3c2OCCN3C(=O)C2CN(S(=O)(=O)c3cccc(C#N)c3)C2)cc1` [O68, 3-((3-(8-(4-Cyanophenyl)-3,4-dihydro-2H-pyrido[4,3-b][1,4]oxazine-4-carbonyl)azetidin-1-yl)sulfonyl)benzonitrile], the IC50 on human CYP11B1 came to 0.052 µM; against human CYP11B2, 0.0007 µM.

For the compound `N#Cc1ccc(-c2cncc3c2OCCN3C(=O)C2CN(S(=O)(=O)c3ccc(C#N)cc3)C2)cc1` [O69, 4-((3-(8-(4-Cyanophenyl)-3,4-dihydro-2H-pyrido[4,3-b][1,4]oxazine-4-carbonyl)azetidin-1-yl)sulfonyl)benzonitrile], the IC50 at human CYP11B1 is 0.057 µM; at human CYP11B2, 0.0021 µM.

As to `Cc1cccc(S(=O)(=O)N2CC(C(=O)N3CCOc4c(-c5ccc(C#N)cc5)cncc43)C2)c1` [O70, 4-(4-(1-(m-Tolylsulfonyl)azetidine-3-carbonyl)-3,4-dihydro-2H-pyrido[4,3-b][1,4]oxazin-8-yl)benzonitrile], the IC50 came out at 0.0316 µM at human CYP11B1 and 0.0014 µM on human CYP11B2.

Take `N#Cc1ccc(-c2cncc3c2OCCN3C(=O)C23CC(Nc4cccc(F)c4)(C2)C3)cc1` [O71, 4-(4-(3-((3-Fluorophenyl)amino)bicyclo[1.1.1]pentane-1-carbonyl)-3,4-dihydro-2H-pyrido[4,3-b][1,4]oxazin-8-yl)benzonitrile]: the IC50 amounted to 2.17 µM at human CYP11B1 and 0.039 µM against human CYP11B2.

As to `N#Cc1ccc(-c2cncc3c2OCCN3C(=O)c2ccc(Oc3ccc(F)cc3)s2)cc1` [O72, 4-(4-(5-(4-Fluorophenoxy)thiophene-2-carbonyl)-3,4-dihydro-2H-pyrido[4,3-b][1,4]oxazin-8-yl)benzonitrile], the IC50 at human CYP11B1 stood at 0.292 µM; against human CYP11B2, 0.0036 µM.

Take `N#Cc1ccc(-c2cncc3c2OCCN3C(=O)N2CC3(CN(Cc4cccc(F)c4)C3)C2)cc1` [O73, 4-(4-(6-(3-Fluorobenzyl)-2,6-diazaspiro[3.3]heptane-2-carbonyl)-3,4-dihydro-2H-pyrido[4,3-b][1,4]oxazin-8-yl)benzonitrile]: the IC50 stood at 3.47 µM on human CYP11B1 and 0.045 µM against human CYP11B2.

Regarding `N#Cc1ccc(-c2cncc3c2OCCN3C(=O)C2CN(S(=O)(=O)c3cccc(C#N)c3)C2)cc1` [O74, 3-((3-(8-(4-Cyanophenyl)-3,4-dihydro-2H-pyrido[4,3-b][1,4]oxazine-4-carbonyl)azetidin-1-yl)sulfonyl)benzonitrile], the IC50 at human CYP11B1 came out at 0.099 µM; at human CYP11B2, 0.0013 µM.

For the compound `N#Cc1ccc(-c2cncc3c2OCCN3C(=O)C2CN(S(=O)(=O)c3ccc(C#N)cc3)C2)cc1` [O75, 4-((3-(8-(4-Cyanophenyl)-3,4-dihydro-2H-pyrido[4,3-b][1,4]oxazine-4-carbonyl)azetidin-1-yl)sulfonyl)benzonitrile], the concentration for half-maximal inhibition (IC50) stood at 0.089 µM against human CYP11B1 and 0.0013 µM at human CYP11B2.

For the compound `COc1cccc(C(=O)N2CC(C(=O)N3CCOc4c(-c5ccc(C#N)cc5)cncc43)C2)c1` [O76, 4-(4-(1-(3-Methoxybenzoyl)azetidine-3-carbonyl)-3,4-dihydro-2H-pyrido[4,3-b][1,4]oxazin-8-yl)benzonitrile], the figures for the IC50 against human CYP11B1 and on human CYP11B2 were 0.146 µM and 0.0016 µM, respectively.

In the case of `COc1ccc(C(=O)N2CC(C(=O)N3CCOc4c(-c5ccc(C#N)cc5)cncc43)C2)cc1` [O77, 4-(4-(1-(4-Methoxybenzoyl)azetidine-3-carbonyl)-3,4-dihydro-2H-pyrido[4,3-b][1,4]oxazin-8-yl)benzonitrile], the results for the IC50 on human CYP11B1 and against human CYP11B2 were 0.195 µM and 0.002 µM, respectively.

For the compound `N#Cc1ccc(-c2cncc3c2OCCN3C(=O)C2CN(Cc3cccc(F)c3)C2)cc1` [O78, 4-(4-(1-(3-Fluorobenzyl)azetidine-3-carbonyl)-3,4-dihydro-2H-pyrido[4,3-b][1,4]oxazin-8-yl)benzonitrile], the IC50 against human CYP11B1 was 0.183 µM; against human CYP11B2 it was 0.0021 µM.

As for `N#Cc1ccc(-c2cncc3c2OCCN3C(=O)C2CN(Cc3ccc(F)cc3)C2)cc1` [O79, 4-(4-(1-(4-Fluorobenzyl)azetidine-3-carbonyl)-3,4-dihydro-2H-pyrido[4,3-b][1,4]oxazin-8-yl)benzonitrile], the IC50 against human CYP11B1 was 0.137 µM; on human CYP11B2, 0.0029 µM.

For `N#Cc1ccc(-c2cncc3c2OCCN3C(=O)C2CN(Cc3cccc(C#N)c3)C2)cc1` [O80, 3-((3-(8-(4-Cyanophenyl)-3,4-dihydro-2H-pyrido[4,3-b][1,4]oxazine-4-carbonyl)azetidin-1-yl)methyl)benzonitrile], the half-inhibitory concentration (IC50) was determined as 0.185 µM on human CYP11B1 and 0.001 µM against human CYP11B2.

In the case of `N#Cc1ccc(CN2CC(C(=O)N3CCOc4c(-c5ccc(C#N)cc5)cncc43)C2)cc1` [O81, 4-(4-(1-(4-Cyanobenzyl)azetidine-3-carbonyl)-3,4-dihydro-2H-pyrido[4,3-b][1,4]oxazin-8-yl)benzonitrile], the IC50 at human CYP11B1 amounted to 0.072 µM; on human CYP11B2, 0.0006 µM.

With `COc1cccc(CN2CC(C(=O)N3CCOc4c(-c5ccc(C#N)cc5)cncc43)C2)c1` [O82, 4-(4-(1-(3-Methoxybenzyl)azetidine-3-carbonyl)-3,4-dihydro-2H-pyrido[4,3-b][1,4]oxazin-8-yl)benzonitrile], the IC50 at human CYP11B1 was found to be 0.069 µM; at human CYP11B2, 0.0014 µM.

With `COc1ccc(CN2CC(C(=O)N3CCOc4c(-c5ccc(C#N)cc5)cncc43)C2)cc1` [O83, 4-(4-(1-(4-Methoxybenzyl)azetidine-3-carbonyl)-3,4-dihydro-2H-pyrido[4,3-b][1,4]oxazin-8-yl)benzonitrile], the IC50 amounted to 0.112 µM against human CYP11B1 and 0.001 µM against human CYP11B2.

In the case of `N#Cc1ccc(-c2cncc3c2OCCN3C(=O)C2CN(c3cccc(F)c3)C2)cc1` [O84, 4-(4-(1-(3-Fluorophenyl)azetidine-3-carbonyl)-3,4-dihydro-2H-pyrido[4,3-b][1,4]oxazin-8-yl)benzonitrile], the IC50 was 0.053 µM on human CYP11B1 and 0.0016 µM on human CYP11B2.

Take `N#Cc1ccc(-c2cncc3c2OCCN3C(=O)C2CN(c3ccc(F)cc3)C2)cc1` [O85, 4-(4-(1-(4-Fluorophenyl)azetidine-3-carbonyl)-3,4-dihydro-2H-pyrido[4,3-b][1,4]oxazin-8-yl)benzonitrile]: the 50% inhibitory concentration (IC50) on human CYP11B1 was 0.064 µM; at human CYP11B2, 0.0046 µM.

Consider `N#Cc1ccc(-c2cncc3c2OCCN3C(=O)C2CN(c3cccc(C#N)c3)C2)cc1` [O86, 3-(3-(8-(4-Cyanophenyl)-3,4-dihydro-2H-pyrido[4,3-b][1,4]oxazine-4-carbonyl)azetidin-1-yl)benzonitrile], for which the IC50 against human CYP11B1 is 0.072 µM; on human CYP11B2, 0.0008 µM.

For the compound `N#Cc1ccc(-c2cncc3c2OCCN3C(=O)C2CN(c3ccc(C#N)cc3)C2)cc1` [O87, 4-(3-(8-(4-Cyanophenyl)-3,4-dihydro-2H-pyrido[4,3-b][1,4]oxazine-4-carbonyl)azetidin-1-yl)benzonitrile], the IC50 on human CYP11B1 came out at 0.055 µM; on human CYP11B2 it was 0.0025 µM.

Turning to `O=C(C1CN(Cc2cccc(F)c2)C1)N1CCOc2c(-c3ccc4ncsc4c3)cncc21` [O88, (8-(Benzo[d]thiazol-6-yl)-2,3-dihydro-4H-pyrido[4,3-b][1,4]oxazin-4-yl)(1-(3-fluorobenzyl)azetidin-3-yl)methanone], the IC50 on human CYP11B1 stood at 0.485 µM; against human CYP11B2 it was 0.006 µM.
